The source of these data is US9884843B2 (Peloton Therapeutics, Inc., priority 2013, dated 2018).

Each structure is given as a SMILES string.

Sequence of HIF-2α HIS TAG-PASB Domain (Q99814 whole entry, looked up, the tested form may be a part): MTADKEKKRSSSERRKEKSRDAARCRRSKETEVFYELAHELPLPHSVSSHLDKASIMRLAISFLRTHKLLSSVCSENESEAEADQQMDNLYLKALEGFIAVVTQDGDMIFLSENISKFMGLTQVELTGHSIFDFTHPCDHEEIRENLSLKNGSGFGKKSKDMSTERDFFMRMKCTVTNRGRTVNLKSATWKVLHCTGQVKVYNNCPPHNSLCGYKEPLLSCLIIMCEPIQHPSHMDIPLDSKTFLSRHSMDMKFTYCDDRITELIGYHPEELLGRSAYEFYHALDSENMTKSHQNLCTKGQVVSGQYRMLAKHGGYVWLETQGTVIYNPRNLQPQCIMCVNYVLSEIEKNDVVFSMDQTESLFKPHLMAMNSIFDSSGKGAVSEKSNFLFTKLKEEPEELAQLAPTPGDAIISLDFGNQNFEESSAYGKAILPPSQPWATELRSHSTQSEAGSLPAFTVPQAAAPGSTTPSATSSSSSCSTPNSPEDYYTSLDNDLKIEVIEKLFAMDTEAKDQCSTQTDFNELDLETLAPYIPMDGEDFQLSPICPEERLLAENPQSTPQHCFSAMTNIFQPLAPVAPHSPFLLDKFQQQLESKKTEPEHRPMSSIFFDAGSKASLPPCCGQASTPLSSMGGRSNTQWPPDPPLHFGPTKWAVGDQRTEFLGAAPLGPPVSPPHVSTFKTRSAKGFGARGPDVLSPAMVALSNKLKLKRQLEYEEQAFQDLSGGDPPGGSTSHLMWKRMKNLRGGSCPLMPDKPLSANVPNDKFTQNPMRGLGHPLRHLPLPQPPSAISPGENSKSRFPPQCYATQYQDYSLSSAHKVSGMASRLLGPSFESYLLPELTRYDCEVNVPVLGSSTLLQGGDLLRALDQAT

For one experiment, the target named is HIF-2α HIS TAG-PASB Domain (Homo sapiens, UniProt Q99814). The experiment is described as follows: biochemical. As to conditions: displacement of Compound 120 probe; mean; read-out: Mean SPA IC50. The experiment is classed as binding. The text has this:
The term “scintillation proximity assay” (SPA) refers to a homogenous assay in which light is emitted when a radiolabeled ligand is brought into close proximity to a radiosensitive bead. The assay typically contains a target protein that contains a tag (e.g., His Tag, Glutathione S-transferase Tag). The tag on the protein is used to bind the target protein to the scintillation bead. Radiolabeled ligand (e.g., labeled with tritium) that binds to the protein is now in close proximity to the bead, and when the raidolabel (e.g., tritium) decays, the high energy particle hits the bead resulting in the emission of light that is detected by a detector, such as photomultiplier tube or CCD camera. When unlabeled ligands or compounds that bind to the protein are used in the assay, they displace the radiolabeled ligand, resulting in loss of signal.
The total assay volume was about 100 μL in the following configuration: 2-μL compound in DMSO, 88 μL buffer with protein and probe and 10 μL of SPA beads. […] To each compound, 88 μL of the buffer solution was then added. […] The percent inhibition was determined and IC50 values were calculated using the Dotmatics system based on the following equation: % inhibition=[(high control−sample)/(high control−low control)]×100.
Regarding `C=CC1(O)c2c(ccc(Oc3cc(F)cc(C#N)c3)c2C#N)S(=O)(=O)C1(F)F` (stereo not drawn) [Compound 114, 5-(3-Cyano-5-fluorophenoxy)-2,2-difluoro-3-hydroxy-3-vinyl-2,3-dihydrobenzo[b]thiophene-4-carbonitrile 1,1-dioxide], the concentration for half-maximal inhibition (IC50) is > 100 µM.
Same read-out and setting: to `O=C1c2c(ccc(Oc3cc(F)cc(Cl)c3)c2Br)S(=O)(=O)C1(F)F` [Compound 8, 4-Bromo-5-(3-chloro-5-fluorophenoxy)-2,2-difluorobenzo[b]thiophen-3(2H)-one 1,1-dioxide] belongs 1.41 µM.
Consider `N#Cc1cc(F)cc(Oc2ccc3c(c2Br)[C@@H](O)C(F)(F)S3(=O)=O)c1` [Compound 1, (R)-3-((4-bromo-2,2-difluoro-3-hydroxy-1,1-dioxido-2,3-dihydrobenzo[b]thiophen-5-yl)oxy)-5-fluorobenzonitrile], for which the IC50 turned out to be 0.007 µM.
For the compound `N#Cc1cc(F)cc(Oc2ccc3c(c2C(F)F)C(=N)C(F)S3(=O)=O)c1` (stereo not drawn) [Compound 27, 3-((4-(difluoromethyl)-2-fluoro-3-imino-1,1-dioxido-2,3-dihydrobenzo[b]thiophen-5-yl)oxy)-5-fluorobenzonitrile], the half-inhibitory concentration (IC50) was found to be 5.84 µM.
Take `O=S1(=O)c2ccc(Oc3cncc(F)c3)c(Br)c2[C@@H](O)C1(F)F` [Compound 77, (R)-4-bromo-2,2-difluoro-5-((5-fluoropyridin-3-yl)oxy)-3-hydroxy-2,3-dihydrobenzo[b]thiophene 1,1-dioxide]: the IC50 came to 0.31 µM.
Same read-out and setting: to `N#Cc1c(Oc2cc(F)cc(Cl)c2)ccc2c1CCS2(=O)=O` [Compound 5, 5-(3-Chloro-5-fluorophenoxy)-2,3-dihydrobenzo[b]thiophene-4-carbonitrile 1,1-dioxide] belongs 4.86 µM; to `CC1(O)c2c(ccc(OCc3ccccc3)c2C#N)S(=O)(=O)C1(F)F` (stereo not drawn) [Compound 113, 5-(Benzyloxy)-2,2-difluoro-3-hydroxy-3-methyl-2,3-dihydrobenzo[b]thiophene-4-carbonitrile 1,1-dioxide], 16.7 µM; to `N#CN=S1(=O)c2ccc(Oc3cc(F)cc(F)c3)c(Cl)c2[C@@H](O)C1(F)F` (stereo partly drawn) [Compound 66, N-((3R)-4-Chloro-5-(3,5-difluorophenoxy)-2,2-difluoro-3-hydroxy-1-oxido-2,3-dihydro-1λ^4-benzo[b]thiophen-1-ylidene)cyanamide], 0.17 µM.
Regarding `N#Cc1c(Oc2cc(F)cc(F)c2)ccc2c1C(O)(C(F)(F)F)CS2(=O)=O` (stereo not drawn) [Compound 102, 5-(3,5-Difluorophenoxy)-3-hydroxy-3-(trifluoromethyl)-2,3-dihydrobenzo[b]thiophene-4-carbonitrile 1,1-dioxide], the IC50 turned out to be 4.6 µM.
On the same count and under the same terms, the same measure for `Cc1cncc(Oc2ccc3c(c2Br)[C@@H](O)C(F)(F)S3(=O)=O)c1` [Compound 82, (R)-4-bromo-2,2-difluoro-3-hydroxy-5-((5-methylpyridin-3-yl)oxy)-2,3-dihydrobenzo[b]thiophene 1,1-dioxide]: 2.93 µM.
Same read-out and setting: to `CC1(O)c2c(ccc(OC3CC(F)(F)C3)c2C#N)S(=O)(=O)C1(F)F` (stereo not drawn) [Compound 115, 5-(3,3-Difluorocyclobutoxy)-2,2-difluoro-3-hydroxy-3-methyl-2,3-dihydrobenzo[b]thiophene-4-carbonitrile 1,1-dioxide] belongs 6.7 µM; to `O=S1(=O)c2ccc(OC3CCOCC3)c(C(F)F)c2C(O)C1(F)F` (stereo not drawn) [Compound 54, 4-(Difluoromethyl)-2,2-difluoro-3-hydroxy-5-((tetrahydro-2H-pyran-4-yl)oxy)-2,3-dihydrobenzo[b]thiophene 1,1-dioxide], 1.92 µM; to `N#Cc1cc(F)cc(Oc2ccc3c(c2C#N)C(O)(C(F)(F)F)CS3(=O)=O)c1` (stereo not drawn) [Compound 104, 5-(3-Cyano-5-fluorophenoxy)-3-hydroxy-3-(trifluoromethyl)-2,3-dihydrobenzo[b]thiophene-4-carbonitrile 1,1-dioxide], 6.3 µM.
Still for that read-out and setting: to `NC1CS(=O)(=O)c2ccc(Oc3cc(F)cc(F)c3)c(C(F)F)c21` (stereo not drawn) [Compound 21] belongs 11.8 µM; to `N#Cc1c(Oc2cc(F)cc(Cl)c2)ccc2c1[C@@H](O)CS2(=O)=O` [Compound 2, (3R)-5-(3-Chloro-5-fluoro-phenoxy)-3-hydroxy-1,1-dioxo-2,3-dihydrobenzothiophene-4-carbonitrile], 0.047 µM.

The experiment is the same for the next values; noted with them: unnumbered compounds listed by structure and name; read-out: IC50 value in SPA.
With `CO/C(=C/C(F)F)c1c(Oc2cc(F)cc(C#N)c2)ccc2c1C(O)C(F)(F)S2(=O)=O` (stereo not drawn) [3-[[4-[(E)-3,3-difluoro-1-methoxy-prop-1-enyl]-2,2-difluoro-3-hydroxy-1,1-dioxo-3H-benzothiophen-5-yl]oxy]-5-fluoro-benzonitrile], the IC50 was 25 to 100 µM.
The same measure, in the same setting: to `N#Cc1cccc(Oc2ccc3c(c2C(F)F)C(=O)C(F)(F)S3(=O)=O)c1` [3-[4-(difluoromethyl)-2,2-difluoro-1,1,3-trioxo-benzothiophen-5-yl]oxybenzonitrile] belongs 25 to 100 µM; to `O=S1(=O)c2ccc(Oc3cc(F)cc(F)c3)c(Br)c2[C@@H](O)C1F` (stereo partly drawn) [(3R)-4-bromo-5-(3,5-difluorophenoxy)-2-fluoro-1,1-dioxo-2,3-dihydrobenzothiophen-3-ol], > 100 µM; to `N#Cc1cc(F)cc(Oc2ccc3c(c2Cl)C(=O)C(F)(F)S3(=O)=O)c1` [3-(4-chloro-2,2-difluoro-1,1,3-trioxo-benzothiophen-5-yl)oxy-5-fluoro-benzonitrile], 25 to 100 µM.
The same measure, in the same setting: to `N#Cc1c(Oc2cncc(Cl)c2)ccc2c1[C@@H](O)CS2(=O)=O` [(3R)-5-[(5-chloro-3-pyridyl)oxy]-3-hydroxy-1,1-dioxo-2,3-dihydrobenzothiophene-4-carbonitrile] belongs 25 to 100 µM; to `O=S1(=O)C[C@H](O)c2c1ccc(Oc1cncc(Cl)c1)c2Br` [(3R)-4-bromo-5-[(5-chloro-3-pyridyl]oxy]-1,1-dioxo-2,3-dihydrobenzothiophen-3-ol], > 100 µM; to `N#Cc1cc(Oc2ccc3c(c2C(F)F)C(=O)C(F)(F)S3(=O)=O)ccc1F` [5-[4-(difluoromethyl)-2,2-difluoro-1,1,3-trioxo-benzothiophen-5-yl]oxy-2-fluoro-benzonitrile], 25 to 100 µM.
Same read-out and setting: to `NC1c2c(ccc(OC3CCOCC3)c2C(F)F)S(=O)(=O)C1(F)F` (stereo not drawn) [4-(difluoromethyl)-2,2-difluoro-1,1-dioxo-5-tetrahydropyran-4-yloxy-3H-benzothiophen-3-amine] belongs 25 to 100 µM; to `O=S1(=O)C[C@H](O)c2c1ccc(Oc1cncc(F)c1)c2Br` [(3R)-4-bromo-5-[(5-fluoro-3-pyridyl)oxy]-1,1-dioxo-2,3-dihydrobenzothiophen-3-ol], > 100 µM; to `O=C1CS(=O)(=O)c2ccc(Oc3ccc(F)c(F)c3)c(C(F)F)c21` [4-(difluoromethyl)-5-(3,4-difluorophenoxy)-1,1-dioxo-benzothiophen-3-one], > 100 µM.
For the compound `N=S1(=O)CC(O)c2c1ccc(Oc1cc(F)cc(F)c1)c2Br` (stereo not drawn) [[4-bromo-5-(3,5-difluorophenoxy)-3-hydroxy-1-imino-2,3-dihydro-1λ^4-benzo[b]thiophene 1-oxide], the half-maximal inhibitory concentration (IC50) was > 100 µM.
In the case of `O=C1c2c(ccc(Oc3ccc(F)c(F)c3)c2C(F)F)S(=O)(=O)C1(F)F` [4-(difluoromethyl)-5-(3,4-difluorophenoxy)-2,2-difluoro-1,1-dioxo-benzothiophen-3-one], the IC50 is > 100 µM.

As usually defined, the IC50 is the point on the concentration scale where inhibition reaches its midpoint.
